Holding throughout (assay type): nucleic-acid assay
Conditions in all cases: Escherichia coli

Assay [1] deals with Nucleic Acid. Kind of assay: DNA cleavage activity assessed as conversion of supercoiled pUC19 plasmid to nicked form at pH 7 after 24 hrs in presence of hydrogen peroxide.
Assay [2] deals with Nucleic Acid. Kind of assay: DNA cleavage activity assessed as conversion of supercoiled pUC19 plasmid to nicked form at 0.286 mM at pH 7 after 24 hrs.
The test system of assay [3] is Nucleic Acid. The experiment in a line: DNA cleavage activity assessed as conversion of supercoiled pUC19 plasmid to nicked form at pH 7 after 12 hrs.
Assay [4] concerns Nucleic Acid. The experiment in a line: DNA cleavage activity assessed as conversion of supercoiled pUC19 plasmid to nicked form at pH 7 after 24 hrs.
For assay [5], the system named is Nucleic Acid. The experiment in a line: DNA cleavage activity assessed as conversion of supercoiled pUC19 plasmid to nicked form at pH 7 after 1 hr.
In assay [6] the test system is Nucleic Acid. Kind of assay: DNA cleavage activity assessed as conversion of supercoiled pUC19 plasmid to nicked form at pH 7 after 24 hrs in presence of sodium azide.
Assay [7] deals with Nucleic Acid. Kind of assay: DNA cleavage activity assessed as conversion of supercoiled pUC19 plasmid to nicked form at pH 7 after 24 hrs in presence of sodium iodide.
The subject of assay [8] is Nucleic Acid. The experiment in a line: DNA cleavage activity assessed as conversion of supercoiled pUC19 plasmid to nicked form at pH 7 after 24 hrs in presence of tertiary-butyl alcohol.

We go through 3 molecules from ChEMBL document CHEMBL1144641, “DNA cleavage promoted by 2,9-dimethyl-4,7-diazadecane-2,9-dithiol (DDD) derivatives” (Bioorg Med Chem Lett, 2007).

Calls of active or inactive are those of the source. The calls are words filed in the database; no cut-off is given here.

On to `CC1CCN(CCN(CCNCC(C)(C)S)CC(C)(C)S)CC1`, for which the result in the assay on Nucleic Acid [1] and with Nucleic Acid [2] was Active. In addition, the Activity is 40.4% in the assay on Nucleic Acid [3], 100% in the assay with Nucleic Acid [4] and 30.9% with Nucleic Acid [5]. Also, the result in the assay with Nucleic Acid [6], in the assay on Nucleic Acid [7] and in the assay on Nucleic Acid [8] was inactive.

Take `CC(C)(S)CNCCN(CCN1CCCCC1)CC(C)(C)S`: in the assay with Nucleic Acid [4], the Activity was found to be 74.8%.

Turning to `CC1CC(C)CN(CCN(CCNCC(C)(C)S)CC(C)(C)S)C1` (stereo not given), the Activity in the assay on Nucleic Acid [4] worked out at 48.2%.
